Legend:
[1] = Dissolution speed: time until 1 g of powder dissolves completely in 100 ml water at ordinary temperature, stirring 550 rpm; format: physicochemical; conditions: Table 4, 25 degrees (ordinary temperature), 1 g in 100 ml water, mean of twice measurement
Description: (§1) As to the dissolution speed, 1 g of powder was dropped into 100 ml of warm water at 50° C. or water at ordinary temperature with stirring at a number of revolutions of 550 rpm (using a 200 ml beaker and a magnetic stirrer), and the time until dissolving completely was measured. A mean value of twice measurement was employed as an indicator of the dissolution speed.

[2] = Mean particle size D50 by digital image analysis type particle size distribution meter; format: physicochemical
From the text: The size of the solid solution of the invention is preferably 50-1000 μm as a mean particle size. The mean particle size as used herein refers to the number median particle size of sieve diameter D50. In view of dissolution speed taking melting ability in the mouth of solid foods and usability as solid beverages into consideration, too large crystals are unsuitable for practical use. Too small crystals are also unsuitable, due to being choked by dusting upon eating and dusting loss upon manufacturing. As to the mean particle size, D50 was measured by a digital image analysis type particle size distribution meter (Ana Tec As Norway). […]

[3] = at 20° C.; water; cited from earlier work
[4] = Dissolution speed: time until 1 g of powder dissolves completely in 100 ml warm water at 50° C., stirring 550 rpm; format: physicochemical
Description: as §1, with “C.” for “C. or water at ordinary temperature”, “The time” for “A mean value of twice measurement”
as §1

[5] = Table 1, 1 g in 100 ml warm water at 50° C., time until dissolving completely
[6] = Table 5, 50 degrees, 1 g in 100 ml warm water, mean of twice measurement

Dissolution Speed [1] [s] | Mean Particle Size ([2]; Table 1) [μm] | Mean Particle Size ([2]; Table 4) [μm] | Mean Particle Size ([2]; Table 5) [μm] | Dissolution Speed [4, 5] [s] | Dissolution Speed [4, 6] [s] | Structure (SMILES) | solubility [3] [g]
287 | 400 | 400 | 400 | 129 | 128.5 | CC[C@H](C)[C@H](N)C(=O)O [Ile, L-isoleucine] | 4.02
320 | 280 | 280 | 280 | 130 | 130 | CC(C)C[C@H](N)C(=O)O [Leu, L-leucine] | 2.38
142 | 210 | 210 | 210 | 118 | 117.5 | CC(C)[C@H](N)C(=O)O [Val, L-valine] | 5.75

Reference: patent publication US20110257236A1, “SOLID SOLUTION OF VALINE, ISOLEUCINE, LEUCINE AND ITS MANUFACTURING METHOD” (AJINOMOTO CO., INC., priority 2008, published 2011)
